# Source: PMC11385693, “Synthesis of ferrocenyl benzimidazole derivatives as novel anti-Toxoplasma gondii agents” (New Journal of Chemistry, 2024)
# Tests used:
# [1] = Aqueous stability studies (UV-vis monitoring, ESI-MS follow-up); assay type: physicochemical; settings: PBS pH 7.4, HEPES pH 7.0 and acetate buffer pH 4.6; 37 °C, 18 hours, 50 μM
# Procedure: The stability of complexes 14–17 in an aqueous environment was investigated. The stability experiments were performed in PBS (pH 7.4) and HEPES (pH 7.0) buffers, as well as in acidic acetate buffer (pH 4.6), by monitoring the UV-vis spectra of the compounds at 37 °C over an 18-hour period.
# To further investigate the stability of 14, the PBS, HEPES and acetate buffer solutions were evaporated to dryness, and then analysed using electrospray ionisation mass spectrometry in the positive ionisation mode.
# PBS and HEPES buffers were prepared as described above. An acetate buffer with a concentration of […] and a pH of 4.60 was prepared by dissolving 5.40 g (65.83 mmol) of sodium acetate in 50 mL of dH2O. The resulting solution was then titrated to a pH of 4.60 with glacial acetic acid and made up to 100 mL with dH2O.
# 1 mM stock solutions of the synthesised target compounds in MeOH were prepared. 1.90 mL of buffer (PBS, HEPES or acetate buffer) was pipetted into cuvettes followed by the addition 100 μL of test compound stock solutions, diluting them to a final concentration of 50 μM. The cuvettes were then stoppered, inverted to mix the solution, and placed in an Agilent Cary 3500 UV-vis spectrophotometer as fast as possible. Blank solutions in matched cuvettes were also prepared by adding 100 μL of MeOH to 1.9 mL of buffer. The solutions in all the cuvettes were stirred at 400 rpm ensure proper mixing. UV spectra were then recoded every 5 minutes for 18 hours with a spectral width of 200–1100 nm to monitor the stability of the test compounds.
# T. gondii = assay: Fluorescence microscopy of infected cells; assay type: cell-based, Toxoplasma gondii; settings: 50 μM
# Procedure: To visualise the impact of the target compounds on the parasites, fluorescence microscopy was performed. Compound 17 was used as a representative for the two active compounds and was incubated with infected cells at a concentration of 50 μM for 24 and 48 hours. Fluorescence microscopy images were obtained at each of the timepoints (Fig. 5).
# A 24 well plate of HFF host cells grown on cover slips was infected with 100 μL of parasites per well and incubated at 37 °C for 1 h. The media in the wells was aspirated and replaced with media containing 50 μM of 17 The plate was once again incubated for 24 or 48 h at 37 °C. Once incubation was complete, the cells were washed once with PBS, before fixation with 500 μL of 4% paraformaldehyde (PFA) at room temperature for 20 minutes. Cells were washed and 500 μL of blocking buffer (2% bovine serum albumin (BSA) in mL PBST (PBS, 0.2% Triton x-100 solution) and incubated for 20 min at room temperature. The cover slips were then carefully removed from each well, mounted using Fluoromount with DAPI (Southern Biotech), and placed facing down on a microscope slide. Images were obtained using a Leica DiM8 (Leica Microsystems) microscope and processed and deconvolved using SoftWoRx and FIJI software.
# HEK293T cell line = settings: 25 μM, MTT 48 hours
# Procedure: Human prostatic epithelial cells (PNT1A) were cultured in Rosewell Park Memorial Institute (RPMI) media supplemented with 10% heat inactivated FBS. Both cell lines were incubated at 37 °C with 5% CO2. Both cell lines were obtained from ATCC.
# The cells were allowed to recover overnight before the addition of compounds.
# Stock solutions of the test compounds in DMSO were prepared and serially diluted in DMSO in a 96 well plate. […] 10 μL of the test compounds in media was then pipetted into the plates containing cells in triplicate. The cells were then incubated with the test compounds for 48 hours. After incubation, 10 μL of previously prepared MTT reagent was added to each well followed by incubation of the plates for 4 hours. 100 μL of solubilising agent was then pipetted into each well, and the plates incubated overnight. After overnight incubation the plates were read using a BioTek SYNERGY HTX multimode plate reader at 595 nm. Graphpad Prism 9 software was used to plot dose–response and determine cell viability.
compound,measurement,setting,value
O=C(NCCn1cnc2cccnc21)[c-]1cccc1.[Fe+2].c1cc[cH-]c1 [Compound 17],Change of UV-vis spectrum over time (aqueous stability),[1],remained unchanged
same,Parasite plasma membrane integrity (fluorescence microscopy),"T. gondii; 24 hours, leakage of fluorescent protein",damaged plasma membranes
same,Daughter cell division of parasites that continued to grow (fluorescence microscopy),T. gondii; 48 hours,abnormal daughter cell division
same,Cell survival / % cell viability,HEK293T cell line,70%
